According to patent US6875752B2, “Uridine derivatives as antibiotics” (Aventis Pharma S.A., priority 2001, dated 2005):

Experiments:
Assay in all cases: Method of dilutions in a liquid medium (M.I.C.)
Type in all cases: cell-based
[1] = tested on: E. faecium; details: E. faecium strains; incubation twenty-four hours at 37° C.; result in words only
Description: (§1) Detail of excipient starch, talc, magnesium stearate. Pharmacological Study of the Products of the Invention Method of Dilutions in a Liquid Medium
(§2) A series of tubes is prepared in which the same quantity of sterile nutritive medium is distributed. Increasing quantities of the product to be studied are distributed into each tube, then each tube is seeded with a bacterial strain. After incubation for twenty-four hours in a heating chamber at 37° C., the growth inhibition is evaluated by transillumination, which allows the minimal inhibitory concentrations (M.I.C.) to be determined, expressed in micrograms/cm^3.

[2] = tested on: S. aureus; details: S. aureus strains; incubation twenty-four hours at 37° C.; result in words only
Description: as §1, §2

[3] = tested on: S. pyogenes; details: S. pyogenes strains; incubation twenty-four hours at 37° C.; result in words only
Description: as §1, §2

Measured: activity (growth inhibition, minimal inhibitory concentrations M.I.C.)

CCCCCCCCCCCCCCCC(=O)NC[C@@H](O[C@@H]1O[C@H](CN)[C@@H](O)[C@H]1O)[C@@H]1C[C@@H](O)[C@H](n2ccc(=O)[nH]c2=O)O1 [Example 1, 1-[5-O-(5-amino-5-deoxy-β-D-ribofuranosyl)-3,6-dideoxy-6-[(1-oxohexadecyl)amino]-β-D-ribo-hexofuranosyl]-2,4-(1H,3H)-pyrimidinedione]
good activity: all assays above
